Patent publication US20180303863A1, “Pharmaceutical Composition for Treating STK11-Mutation Cancer Using Cardiac Glycosides” (INDUSTRY-ACADEMIC COOPERATION FOUNDATION SOOKMYUNG WOMEN'S …, priority 2014, published 2018)

Columns and labels:
[1] = test system: STK11 mutant cell lines (NCI60 panel); experiment: CLEA enrichment analysis of GI50 profiles on the NCI60 panel by STK11 genotype; format: cell-based; details: MOLT-4, A549, NCI-H460, NCI-H23, SK-MEL-5, DU-145, FIG. 3A
Protocol: To identify sensitivity patterns of the genotype-specific compounds, a subset of the compounds was selected using a GI50 profile pattern on a CLEA map.
First of all, a −logGI50 value of 8 (that is, GI50=0.01 μM) was chosen as a bipartite cutoff used to determine to which cell lines a compound was sensitive on a NCI60 panel. In this case, the compound was sensitive when the value is greater than 8, and was not sensitive when the value is less than 8.
Next, an enrichment score (an AUC value) was used to select the genotype-specific compounds in a CLEA assay.
An AUC value >80 and a P value <0.01 were used as cutoff values used to determine that a compound had significant sensitivity to certain genotypes. In this example, compounds showing strong potency (that is, a −logGI50 value of 8) to at least one cell line on the NCI60 panel were included.
As a result, a total of three non-overlapping compounds satisfying the above filtering requirements were compiled. Hierarchical clustering of these selected compounds was carried out on a category of STK11 genotypes. In this example, three main groups of compounds showing uniform sensitivity based on the mutant genotypes were identified. Such a cluster of compounds were sensitive to genetic mutations in an STK11 gene.

[2] = test system: STK11-mutant lung cancer cell lines (A549, H460, H1993, H1395) and STK11-wild-type lung cancer cell lines (H226, H322M, H82, H524); experiment: Cell viability (CellTiter-Blue) in STK11-mutant and STK11-wild-type lung cancer cell lines; format: cell-based; details: varying concentration, 72 hours; FIG. 5A
Protocol: NCI-60 lung cancer cell lines (NCI-H460, A549, NCI-H322M, and NCI-H226) were obtained from the U.S. National Cancer Institute (NCI DTP). All cells were grown in an RPMI medium (GIBCO) supplemented with 10% FBS (GIBCO) and penicillin/[…] (GIBCO), and kept at 37° C. in a humidified atmosphere of 5% CO2.
A total of three cardiac glycosides (chemicals) having the structures shown in FIG. 1 were screened in a lung cancer cell line. Digoxin, ouabain, and digitoxin were all purchased from Sigma Aldrich.
(§1) The cells were seeded in 96-well plates at a density of 2,000, 1,000, and 200 cells per well, and cultured for 3, 7, and 14 days, respectively. After 24 hours of seeding, the cells were treated with a chemical diluted with digitoxin and ouabain at working concentrations of 0.05 μM and 0.02 μM, respectively. The cells were again cultured for 72 hours (3 days), 7 days, and 14 days, and then the cell viability was measured using a CellTiter-Blue assay kit.

[3] = test system: STK11-mutant cell line (A549) and cell line (A549-STK11) in which STK11 was restored into the wild type; experiment: Cell viability (CellTiter-Blue) in A549 versus the STK11-restored A549-STK11 line; format: cell-based; details: for inhibition of cell growth in lung cancer cell lines A549 and A549-STK11: 96-well plate; for response of the STK11-restored cell line compared to the STK11-mutant cell line (inhibition of cell growth, TiterBlue): FIG. 5B
Protocol: as §1
In this case, each of a STK11-mutant cell line (A549) and a cell line (A549-STK11) in which STK11 was restored into the wild type were used as the lung cancer cell line.

[4] = test system: A549 lung cancer cell line; experiment: Mouse tumor xenograft model, A549; format: in vivo, athymic nude mice
Protocol: (§2) After athymic nude mice (Oriental Bio Inc) were purchased, the animal model was prepared according to the standard guidelines provided by the Catholic University of Korea-Institutional Animal Care and Use Committee (CUK-IACUC). A549 or A549-LKB 1 wt were subcutaneously injected (3×10^6 cells/ml) into the above animal model, and divided into three groups: (1) an untreated control group (n=10); (2) a group in which the mice were treated with digoxin at 60 ng/kg/body weight (n=10); (3) a group in which the mice were treated with digoxin at 180 ng/kg/body weight (n=10). Digoxin or a vehicle (1.9% DMSO/10% polyethylene glycol 400/l×PBS: a total volume of 200 μl) was orally administered three times a week for 5 weeks. Then, the diameter of each tumor base was measured, and the size of a tumor was then calculated according to the following equation: Tumor size (mm^3)=(length×width×height×0.52). Also, the mice were monitored until the tumor size reached 1 cm^3, and then the mice were sacrificed, and tumors were extracted from the mice.

[5] = test system: cell line (A549-LKB1wt) in which STK11 was restored into the wild type; experiment: Mouse tumor xenograft model, A549-LKB1wt (STK11 restored); format: in vivo, athymic nude mice; details: oral, three times a week for 5 weeks, 60 or 180 ng/kg/body weight; FIG. 10B
Protocol: as §2

| Compound | sensitivity (GI50 profile) in 6 cell lines with STK11 mutation potential [1] | inhibition of cell growth, STK11-mutant compared to STK11-wild-type lung cancer cell lines [2] | inhibition of cell growth in lung cancer cell lines A549 and A549-STK11 [3] | response of the STK11-restored cell line compared to the STK11-mutant cell line (inhibition of cell growth, TiterBlue) [3] | tumor growth in the STK11-mutant model compared to the wild-type STK11-expressing model ([4]; FIGS. 10C, 10D, 10E) | growth of a tumor ([4]; oral, three times a week for 5 weeks, 60 or 180 ng/kg/body weight, FIG. 10A) | growth of a tumor [5] |
| --- | --- | --- | --- | --- | --- | --- | --- |
| C[C@H]1O[C@@H](O[C@H]2[C@@H](O)C[C@H](O[C@H]3[C@@H](O)C[C@H](O[C@H]4CC[C@@]5(C)[C@H](CC[C@@H]6[C@@H]5CC[C@]5(C)[C@@H](C7=CC(=O)OC7)CC[C@]65O)C4)O[C@@H]3C)O[C@@H]2C)C[C@H](O)[C@@H]1O [digitoxin] | relatively high sensitivity | specifically inhibited the cell growth | the cell growth was inhibited | resistant | – | – | – |
| C[C@H]1O[C@@H](O[C@H]2[C@@H](O)C[C@H](O[C@H]3[C@@H](O)C[C@H](O[C@H]4CC[C@@]5(C)[C@H](CC[C@@H]6[C@@H]5C[C@@H](O)[C@]5(C)[C@@H](C7=CC(=O)OC7)CC[C@]65O)C4)O[C@@H]3C)O[C@@H]2C)C[C@H](O)[C@@H]1O [digoxin] | relatively high sensitivity | specifically inhibited the cell growth | the cell growth was inhibited | resistant | selectively reduced | reduced in a time-dependent manner | did not have the same effect |
| C[C@@H]1O[C@@H](O[C@H]2C[C@@H](O)[C@]3(CO)[C@H]4[C@H](O)C[C@]5(C)[C@@H](C6=CC(=O)OC6)CC[C@]5(O)[C@@H]4CC[C@]3(O)C2)[C@H](O)[C@H](O)[C@H]1O [ouabain] | relatively high sensitivity | specifically inhibited the cell growth | the cell growth was inhibited | resistant | – | – | – |
